We go through 2 compounds from patent US7812117B2, “Vasostatin as marrow protectant” (The United States of America as represented by the …, priority 1998, dated 2010).

In series [1] the test system is murine bone marrow cells. Description: Murine bone marrow cell proliferation in vitro ([3H] thymidine incorporation). The following applies: cisplatinum 25 μM, regardless the addition of vaso.
Series [2] relates to murine bone marrow cells. The following applies: C57BL/6NCR, mouse, 77 nM.

On to `N.N.[Cl][Pt][Cl]` [Cisplatinum, cis-diammine-dichloroplatinum II, reference compound], for which the “bone marrow cell proliferation induced by IL-3 at the highest dose of cisplatinum” value with murine bone marrow cells [1] is “minimal”.

As for `COc1cc([C@@H]2c3cc4c(cc3[C@@H](O[C@@H]3O[C@@H]5CO[C@@H](C)O[C@H]5[C@H](O)[C@H]3O)[C@H]3COC(=O)[C@H]23)OCO4)cc(OC)c1O` [Etoposide, reference compound], in the series on murine bone marrow cells [2], the “reduction of bone marrow cell proliferation” value is 1.5-2.7 fold.
